Laboratory results reported in ChEMBL document CHEMBL4422610, “HDAC as onco target: Reviewing the synthetic approaches with SAR study of their inhibitors” (Eur J Med Chem, 2018).

How the values were obtained:
[1] = molecular target: Histone deacetylase 1 (Homo sapiens, UniProt Q13547); assay: Inhibition of human HDAC1 using fluorogenic HDAC substrate
[2] = molecular target: Histone deacetylase 3 (Homo sapiens, UniProt O15379); assay: Inhibition of human HDAC3 using fluorogenic HDAC substrate
[3] = molecular target: Histone deacetylase 4 (Homo sapiens, UniProt P56524); assay: Inhibition of human HDAC4 using fluorogenic HDAC substrate
Chain of Histone deacetylase 4 (P56524 whole entry): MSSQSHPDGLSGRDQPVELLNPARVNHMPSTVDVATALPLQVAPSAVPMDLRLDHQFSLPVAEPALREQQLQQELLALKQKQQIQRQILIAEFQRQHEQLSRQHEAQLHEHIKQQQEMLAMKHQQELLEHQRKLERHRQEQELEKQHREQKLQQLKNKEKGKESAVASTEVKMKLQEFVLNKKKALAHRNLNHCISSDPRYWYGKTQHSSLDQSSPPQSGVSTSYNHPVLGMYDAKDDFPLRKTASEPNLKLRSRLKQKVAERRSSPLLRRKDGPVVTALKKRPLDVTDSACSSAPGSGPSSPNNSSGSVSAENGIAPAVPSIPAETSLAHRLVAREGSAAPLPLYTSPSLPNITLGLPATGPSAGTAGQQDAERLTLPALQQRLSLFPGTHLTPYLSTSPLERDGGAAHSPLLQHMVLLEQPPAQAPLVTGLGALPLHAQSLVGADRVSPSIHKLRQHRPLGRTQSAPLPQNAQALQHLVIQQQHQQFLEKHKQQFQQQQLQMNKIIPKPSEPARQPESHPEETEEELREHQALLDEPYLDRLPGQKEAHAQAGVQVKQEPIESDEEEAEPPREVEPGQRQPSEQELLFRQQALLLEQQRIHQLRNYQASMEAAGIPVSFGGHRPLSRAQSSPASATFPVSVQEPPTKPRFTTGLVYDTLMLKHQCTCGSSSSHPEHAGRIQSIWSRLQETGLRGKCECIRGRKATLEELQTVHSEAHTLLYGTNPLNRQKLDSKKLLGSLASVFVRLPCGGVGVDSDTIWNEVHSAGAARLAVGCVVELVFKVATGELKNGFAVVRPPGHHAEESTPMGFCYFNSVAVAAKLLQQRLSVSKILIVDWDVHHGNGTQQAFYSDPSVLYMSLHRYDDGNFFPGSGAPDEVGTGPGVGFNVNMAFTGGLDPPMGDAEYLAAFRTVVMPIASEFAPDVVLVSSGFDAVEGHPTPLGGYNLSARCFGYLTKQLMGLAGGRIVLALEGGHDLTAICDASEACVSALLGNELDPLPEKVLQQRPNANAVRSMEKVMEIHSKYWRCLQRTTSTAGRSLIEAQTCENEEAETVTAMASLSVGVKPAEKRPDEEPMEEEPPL

[4] = molecular target: T1, Protein deacetylase HDAC6 (Homo sapiens, UniProt Q9UBN7); assay: Inhibition of human HDAC6 using fluorogenic HDAC substrate
T1 sequence (Q9UBN7 whole entry): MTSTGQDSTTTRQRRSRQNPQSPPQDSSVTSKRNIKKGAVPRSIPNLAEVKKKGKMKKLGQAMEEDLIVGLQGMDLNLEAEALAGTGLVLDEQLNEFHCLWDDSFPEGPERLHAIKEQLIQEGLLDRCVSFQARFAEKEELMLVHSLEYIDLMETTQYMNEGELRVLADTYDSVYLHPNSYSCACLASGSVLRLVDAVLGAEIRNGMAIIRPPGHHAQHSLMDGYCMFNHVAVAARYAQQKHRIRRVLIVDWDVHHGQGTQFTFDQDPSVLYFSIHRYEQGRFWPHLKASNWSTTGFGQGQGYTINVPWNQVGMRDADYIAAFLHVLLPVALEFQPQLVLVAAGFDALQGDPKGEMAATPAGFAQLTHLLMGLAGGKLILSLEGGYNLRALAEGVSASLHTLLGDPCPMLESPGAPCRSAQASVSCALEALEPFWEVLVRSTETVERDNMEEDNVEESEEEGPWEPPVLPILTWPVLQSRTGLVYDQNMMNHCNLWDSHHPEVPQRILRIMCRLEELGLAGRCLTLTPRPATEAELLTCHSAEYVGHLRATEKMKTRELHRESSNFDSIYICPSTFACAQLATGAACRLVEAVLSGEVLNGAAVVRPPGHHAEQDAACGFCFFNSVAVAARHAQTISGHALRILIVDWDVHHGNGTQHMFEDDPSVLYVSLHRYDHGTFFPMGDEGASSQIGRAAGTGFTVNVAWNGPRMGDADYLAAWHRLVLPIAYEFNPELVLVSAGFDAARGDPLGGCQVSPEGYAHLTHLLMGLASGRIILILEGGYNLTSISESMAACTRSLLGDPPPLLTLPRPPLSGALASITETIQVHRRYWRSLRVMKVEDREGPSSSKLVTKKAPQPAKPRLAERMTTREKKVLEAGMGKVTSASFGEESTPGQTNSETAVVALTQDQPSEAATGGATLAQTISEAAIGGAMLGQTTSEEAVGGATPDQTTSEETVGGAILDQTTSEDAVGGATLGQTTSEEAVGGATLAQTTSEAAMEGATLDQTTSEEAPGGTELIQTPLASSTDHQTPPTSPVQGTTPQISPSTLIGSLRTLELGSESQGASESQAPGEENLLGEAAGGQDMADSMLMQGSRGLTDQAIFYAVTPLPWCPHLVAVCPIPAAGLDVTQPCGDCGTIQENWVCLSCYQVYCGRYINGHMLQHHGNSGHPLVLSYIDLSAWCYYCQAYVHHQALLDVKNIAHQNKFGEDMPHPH

[5] = molecular target: T2, Histone deacetylase 8 (Homo sapiens, UniProt Q9BY41); assay: Inhibition of human HDAC8 using fluorogenic HDAC substrate
T2 sequence (Q9BY41 whole entry): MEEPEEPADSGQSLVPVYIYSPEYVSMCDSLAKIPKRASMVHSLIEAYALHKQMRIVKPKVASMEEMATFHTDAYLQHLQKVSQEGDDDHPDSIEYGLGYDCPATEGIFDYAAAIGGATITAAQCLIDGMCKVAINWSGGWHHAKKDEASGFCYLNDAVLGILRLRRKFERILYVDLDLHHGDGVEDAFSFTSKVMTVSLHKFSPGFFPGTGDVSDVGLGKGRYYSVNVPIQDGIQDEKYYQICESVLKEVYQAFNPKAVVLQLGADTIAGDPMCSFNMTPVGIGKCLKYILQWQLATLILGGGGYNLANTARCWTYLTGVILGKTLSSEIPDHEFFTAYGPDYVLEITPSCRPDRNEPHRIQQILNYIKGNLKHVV

[6] = molecular target: Histone deacetylase 9 (Homo sapiens, UniProt Q9UKV0); assay: Inhibition of human HDAC9 using fluorogenic HDAC substrate
Chain of Histone deacetylase 9 (Q9UKV0 whole entry): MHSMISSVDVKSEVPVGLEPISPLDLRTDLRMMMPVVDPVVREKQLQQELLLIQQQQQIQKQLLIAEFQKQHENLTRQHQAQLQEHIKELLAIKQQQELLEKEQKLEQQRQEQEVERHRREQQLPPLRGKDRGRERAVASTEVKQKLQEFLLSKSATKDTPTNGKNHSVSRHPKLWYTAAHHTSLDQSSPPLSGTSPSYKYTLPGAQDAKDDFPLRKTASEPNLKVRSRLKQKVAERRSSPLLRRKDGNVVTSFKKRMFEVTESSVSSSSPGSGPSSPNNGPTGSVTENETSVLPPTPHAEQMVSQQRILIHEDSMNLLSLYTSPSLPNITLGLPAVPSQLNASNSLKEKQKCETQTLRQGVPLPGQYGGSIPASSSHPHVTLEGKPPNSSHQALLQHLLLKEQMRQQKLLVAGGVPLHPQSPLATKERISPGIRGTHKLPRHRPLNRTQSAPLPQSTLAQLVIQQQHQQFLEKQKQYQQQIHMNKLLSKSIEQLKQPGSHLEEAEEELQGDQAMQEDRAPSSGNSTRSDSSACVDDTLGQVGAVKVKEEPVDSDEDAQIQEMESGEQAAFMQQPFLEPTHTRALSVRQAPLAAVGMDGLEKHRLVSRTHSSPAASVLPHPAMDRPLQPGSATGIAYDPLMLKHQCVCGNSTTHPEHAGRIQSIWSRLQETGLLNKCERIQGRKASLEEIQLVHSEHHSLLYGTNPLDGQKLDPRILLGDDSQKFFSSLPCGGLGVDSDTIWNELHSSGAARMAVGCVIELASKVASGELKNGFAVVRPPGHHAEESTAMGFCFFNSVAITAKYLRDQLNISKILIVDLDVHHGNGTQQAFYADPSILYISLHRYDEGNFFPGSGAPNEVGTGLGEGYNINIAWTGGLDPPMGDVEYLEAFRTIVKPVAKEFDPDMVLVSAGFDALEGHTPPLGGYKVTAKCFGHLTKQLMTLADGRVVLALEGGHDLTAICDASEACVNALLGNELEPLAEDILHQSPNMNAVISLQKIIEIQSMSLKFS

Chain of Histone deacetylase 3 (O15379 whole entry): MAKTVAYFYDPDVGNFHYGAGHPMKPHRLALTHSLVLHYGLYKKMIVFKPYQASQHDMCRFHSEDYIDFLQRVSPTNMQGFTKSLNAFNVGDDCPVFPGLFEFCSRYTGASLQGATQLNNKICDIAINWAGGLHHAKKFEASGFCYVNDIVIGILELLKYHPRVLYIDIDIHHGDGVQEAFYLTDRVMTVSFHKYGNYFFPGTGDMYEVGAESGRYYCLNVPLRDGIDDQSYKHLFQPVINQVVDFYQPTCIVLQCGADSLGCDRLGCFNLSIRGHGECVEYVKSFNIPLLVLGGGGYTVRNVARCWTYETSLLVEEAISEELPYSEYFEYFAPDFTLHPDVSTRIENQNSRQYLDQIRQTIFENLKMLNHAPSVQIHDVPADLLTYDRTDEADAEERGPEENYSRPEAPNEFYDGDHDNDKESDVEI
Chain of Histone deacetylase 1 (Q13547 whole entry): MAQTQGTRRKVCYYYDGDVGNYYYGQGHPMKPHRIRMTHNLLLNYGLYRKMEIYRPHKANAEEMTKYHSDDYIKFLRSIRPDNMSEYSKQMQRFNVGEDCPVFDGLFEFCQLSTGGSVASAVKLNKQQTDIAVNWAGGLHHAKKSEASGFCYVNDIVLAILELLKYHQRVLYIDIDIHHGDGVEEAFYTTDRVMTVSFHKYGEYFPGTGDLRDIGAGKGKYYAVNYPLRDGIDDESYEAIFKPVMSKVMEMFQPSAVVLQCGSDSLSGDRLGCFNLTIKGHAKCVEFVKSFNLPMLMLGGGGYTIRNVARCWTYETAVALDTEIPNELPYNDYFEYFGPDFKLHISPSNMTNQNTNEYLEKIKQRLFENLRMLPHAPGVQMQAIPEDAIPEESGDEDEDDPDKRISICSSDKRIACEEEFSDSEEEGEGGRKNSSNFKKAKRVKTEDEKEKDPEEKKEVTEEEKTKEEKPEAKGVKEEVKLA

- IC50 [1]: 4.9 µM
- IC50 [2]: > 30 µM
- IC50 [3]: > 30 µM
- IC50 [4]: 6 nM
- IC50 [5]: 2900 nM
- IC50 [6]: 8.9 µM
SMILES: O=C(NO)c1ccc(CN2c3ccccc3CC[C@@H]3CCCC[C@H]32)cc1
